Results from patent US20160038474A1, “COMPOSITIONS AND METHODS FOR THE MODULATION OF HEMOGLOBIN (S)” (GLOBAL BLOOD THERAPEUTICS, INC., priority 2013, published 2016).

Assays:
[1] = test system: hemoglobin and human serum albumin; test: In vitro binding to hemoglobin and human serum albumin at physiologic ratio; conditions: both proteins present in their respective physiologic ratio
Procedure: However, when the red blood cell compartment is considered, compound 12 unexpectedly partitions into blood to a far greater extent than compound 22 or compound 23. […] When the red blood cell/plasma ratio was measured at the peak concentration, compound 12 partitioned at a ratio of 70 to 1 into the erythrocytes attesting to its preferential partition into the compartment which contains the drug target hemoglobin. Supportive data was reported in an in vitro system measuring binding of compound 12 to hemoglobin and human serum albumin.

HbS/A = target: T1, HbS/A (Homo sapiens, UniProt P68871+P69905, E7V); test: R/T assay (relaxed-to-tense transition); format: biochemical; conditions: HbS/A 3 μM
T1 construct: A mixture of HbS/A was purified from blood obtained from homozygous sickle cell patients; from tissue; host or cells: blood of homozygous sickle cell patients
Procedure: This ability can be expressed as a “delta R” value (i.e., the change in the time-period of the R state after hemoglobin is treated with a compound, as compared to the period without treatment with the compound). Delta R is the % R to remaining after the compounds treatment compared with no treatment (e.g., if R % without treatment is 8% while with treatment with a target compound is 48% R at 30 μM, then % R is 40% for that compound.
A mixture of HbS/A was purified from blood obtained from homozygous sickle cell patients though the Hemoglobinopathy Center at Children's Hospital Oakland Research Institute (CHORI) with Institutional Review Board approval. HbS/A (at a final concentration of 3 μM) was incubated for 1 hr at 37° C. in presence or absence of compounds in […] potassium phosphate buffer, pH=7.4 and 30 μM 2,3 diphosphoglycerate (DPG) in 96 well plates in a final volume of 160 μl. Compounds were added at different concentrations (3 μM to 100 μM final concentrations). Plates were covered with a Mylar film. After incubation was completed the Mylar cover was removed and the plates were placed in a Spectrostar Nano plate reader previously heated at 37° C. Five minutes later, N2 (flow rate=20 L/min) was flowed through the spectrophotometer. Spectroscopic measurements (300 nm to 700 nm) were taken every 5 min for 2 hours. Data analysis was performed by using linear regression from the data retrieved for all wavelengths.

purified HbS = target: T2, purified HbS (Homo sapiens, UniProt P68871+P69905, E7V); test: HbS polymerization assay; format: biochemical; conditions: for Polymerization DTcmpd-DTHbS: [HbS] 50 μM
T2 construct: HbS is purified by the CRO VIRUSYS, from blood obtained from homozygous sickle cell patients; tissue VIRUSYS (CRO that did the purification); host or cells: blood of homozygous sickle cell patients
Procedure: Polymerization assays are carried out in vitro using purified HbS exchanged into 1.8 M potassium phosphate buffer at pH 7.4. Using a slightly modified protocol (Antonini and Brunori, 1971). HbS is purified by the CRO VIRUSYS, from blood obtained from homozygous sickle cell patients through the Hemoglobinopathy Center at Children's Hospital Oakland Research Institute (CHORI) with Institutional Review Board approval. Compounds are prepared in 100% DMSO and a desired amount is added to 50 μM of purified HbS at a final DMSO concentration of 0.3%. Final potassium phosphate concentration is adjusted to 1.8 M using a combination of 2.5 M potassium phosphate stock solution and water at pH 7.4. The reaction mixture is incubated for an hour at 37° C. and then transferred into a 24-well plate for deoxygenation in a glove box containing 99.5% nitrogen and 0.5% oxygen. The 24-well plate is not covered and incubated at 4° C. on a plate cooler inside the glove box for one and a half hours. Fifty μl of the reaction mixture is transferred into a 96-well plate and the absorbance at 700 nm is measured every minute for one hour at 37° C. in a plate reader located inside the glove box. A plot of the absorbance against time is fitted using a Boltzman sigmoidal fit and the delay time (from zero to time at half Vmax) is measured. To compare and rank compounds, delay times are expressed as percent delay (% DT), which is defined as the difference in delay times for HbS/compound and HbS alone multiplied by 100 and divided by the delay time for HbS alone.
The ability of 5-HMF and compound 12 to delay HbS polymerization was evaluated as described in Example 2, above. Purified HbS (50 μM) was pre-incubated with 25 μM, 50 μM, or 100 μM of 5-HMF or compound 12, then passively de-oxygenated at 4° C. in 1.8 M potassium phosphate. Polymerization was induced via temperature jump from 4° C. to 37° C. Polymerization was quantified based on turbidity of the HbS solution under continued hypoxia.

HbS = HbS (Homo sapiens, UniProt P68871+P69905, E7V); test: 96-well oxygen dissociation assay (ODA); format: biochemical
Description: Results: Table 4 below lists the change in oxygen affinity (Δoxy state). After two hours of passive deoxygenation, compound 12, at an equimolar concentration to Hb, increased the Hb oxygen affinity by 6-fold.

purified Hb = purified Hb (Homo sapiens, UniProt P68871+P69905); test: TCS Hemox analyzer with purified Hb; format: biochemical; conditions: purified Hb 25 μM
Procedure: The agents were then assayed in a TCS Hemox analyzer using purified Hb at 25 μM.

- binding preference, hemoglobin versus human serum albumin [1]: preferentially binding to hemoglobin
- R-T delta R (HbS/A; 9 μM compound): 65.45
- R-T delta R (class) (HbS/A; 9 μM compound): +++ (a delta R of 50 or greater)
- R-T delta R (HbS/A; 10 μM compound): 62.75
- R-T delta R (class) (HbS/A; 10 μM compound): +++ (a delta R of 50 or greater)
- Polymerization % DT (class) (purified HbS; 75 μM compound, 50 μM HbS): †† (activity >80% but ≦120%)
- Polymerization % DT (percent delay) (purified HbS; 75 μM compound, 50 μM HbS): 108.56%
- Polymerization DTcmpd-DTHbS (purified HbS; [Cmpd] 25 μM): 3.9 min
- Polymerization DTcmpd-DTHbS (purified HbS; [Cmpd] 50 μM): 12.8 min
- Polymerization DTcmpd-DTHbS (purified HbS; [Cmpd] 100 μM): 22.9 min
- Hb in ODA (Δoxy state) (HbS; [Hb] 3 μM, [cmp] 3 μM): 56
- increase of Hb oxygen affinity (HbS; equimolar concentration to Hb, after two hours of passive deoxygenation): 6 fold
- improvement of oxygen affinity versus Hb control (purified Hb; compound:Hb ratio of 1:3): 15%
- improvement of oxygen affinity versus Hb control (purified Hb; stoichiometric concentrations): greater than 70%
SMILES: CC(C)n1nccc1-c1ncccc1COc1cccc(O)c1C=O [Compound 12, 2-hydroxy-6-[[2-(2-propan-2-ylpyrazol-3-yl)pyridin-3-yl]methoxy] benzaldehyde]
- HbS polymerization delay (in words) (purified HbS; HbS 50 μM, 25, 50 or 100 μM compound): delayed HbS polymerization in a dose-dependent manner
- potency at increasing the oxygen affinity of HbS compared with 5-HMF (HbS; 96-well ODA): more potent at increasing the oxygen affinity of HbS than 5-hydroxy furfural
